Test results as given in US9399646B2 (Genentech, Inc., priority 2010, dated 2016).

Tests used:
MCF-7 cells = assay: Breast cancer cell viability assay (CellTiter-Glo, 5 days); type: cell-based; details: 5 days' compound exposure; for IC50: Homo sapiens, MCF7, 120 h
Experimental: MCF-7 cells were adjusted to a concentration of 20,000 cells per mL in RPMI containing 10% FBS and 20 mM HEPES. 16 microliters of the cell suspension (320 cells) was added to each well of a 384 well plate, and the cells were incubated overnight to allow the cells to adhere. The following day an eleven point, serial semilog dilution of each compound was added to the cells in 16 μL at a final concentration ranging from 0.3-0.000003 μM. After 5 days' compound exposure, 16 μL of CellTiter-GLo (Promega, Madison Wis.) was added to the cells the relative luminescence units (RLUs) of each well was determined CellTiter-Glo added to 32 μL of medium without cells was used to obtain a background value. The Percent viability of each sample was determined as follows: (RLU sample-RLU background/RLU untreated cells-RLU background)×100=% viability.

ER-α in MCF-7 cells = target: T1, ER-α in MCF-7 cells (Homo sapiens, UniProt P03372); assay: Breast cancer cell ER-α in cell western assay (SP1); type: cell-based; design: endogenous in cells; host or cells: MCF-7; details: 4 or 24 hr post compound addition; for Emax: MCF7, SP1 antibody, read-out: ER-α In Cell Western Assay (SP1) Max Response; for DC50: SP1 antibody, read-out: ER-α In Cell Western Assay (SP1) IC50
T1 sequence (P03372 1-595): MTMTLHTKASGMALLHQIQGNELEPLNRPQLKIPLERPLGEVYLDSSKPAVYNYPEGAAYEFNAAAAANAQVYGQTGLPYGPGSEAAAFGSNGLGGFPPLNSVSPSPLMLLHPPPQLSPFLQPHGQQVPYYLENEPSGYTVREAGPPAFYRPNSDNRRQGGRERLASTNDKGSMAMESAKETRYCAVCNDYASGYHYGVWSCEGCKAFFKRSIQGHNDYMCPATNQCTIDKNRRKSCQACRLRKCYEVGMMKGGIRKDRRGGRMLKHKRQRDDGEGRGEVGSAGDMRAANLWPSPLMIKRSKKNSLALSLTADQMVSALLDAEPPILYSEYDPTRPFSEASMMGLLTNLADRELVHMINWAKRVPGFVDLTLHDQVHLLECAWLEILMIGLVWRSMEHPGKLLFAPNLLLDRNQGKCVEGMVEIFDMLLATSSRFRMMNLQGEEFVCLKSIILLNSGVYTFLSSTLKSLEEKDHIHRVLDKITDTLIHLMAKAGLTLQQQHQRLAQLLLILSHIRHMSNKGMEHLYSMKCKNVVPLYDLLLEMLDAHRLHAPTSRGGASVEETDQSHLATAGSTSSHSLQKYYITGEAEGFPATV
Experimental: MCF-7 cells were adjusted to a concentration of 200,000 cells per mL in RPMI containing 10% charcoal-stripped FBS and 20 mM HEPES. 16 microliters of the cell suspension (3200 cells) was added to each well of a poly-D-lysine 384 well plate, and the cells were incubated overnight to allow the cells to adhere. The following day an eleven point, serial semilog dilution of each compound was added to the cells in 16 μL at a final concentration ranging from 0.3-0.000003 μM. At 4 or 24 hr post compound addition, the cells were fixed (10% formalin in PBS) for 20 minutes. Cells were permeablized in PBS 0.1% Triton and blocked with LICOR blocking buffer (50 μl/well, 90°). The wells were then incubated overnight at 4° C. with SP1 rabbit monoclonal Ab (Thermo Scientific) diluted 1:1000 in LICOR blocking buffer/0.1% Tween-20. Wells which were treated with blocking buffer with Tween but no antibody were used as a background control. Wells were washed with 0.1% Tween-20/PBS and then incubated in goat anti-rabbit IRDye™ 800CW (LICOR Inc.; 1:1000) and DRAQ5 DNA dye (1:2000 for 2 mM stock) diluted in LICOR blocking buffer containing 0.1% Tween-20 and 0.01% SDS for 60 minutes. Cells were washed (50 μl/well, 5′ each) in 0.1% Tween-20/PBS. Plates were scanned on a LICOR Odyssey infrared imaging system. Integrated intensities in the 800 nm channel and 700 nm channel were measured to determine levels of ER and DNA respectively. Percent ER levels were determined as follows: (Integrated intensity 800 nm sample/integrated intensity 700 nm sample)/(Integrated intensity 800 nm untreated cells/integrated intensity 700 nm untreated cells)×100=% ER levels.

Row | IC50 (MCF-7 cells) [µM] | Emax (ER-α in MCF-7 cells) [%] | DC50 (ER-α in MCF-7 cells) [µM] | SMILES | MCF7 Viability Assay Max Response (MCF-7 cells)
1 | ≤ 0.1 | ≥ 40 | – | CC/C(=C(/c1ccc(/C=C/C(=O)O)cc1)c1ccc2[nH]nnc2c1)c1ccccc1 [Compound 3, (E)-3-(4-((E)-1-(1H-Benzo[d][1,2,3]triazol-5-yl)-2-phenylbut-1-en-1-yl)phenyl)acrylic acid] | ++ (++ = a single % value ≧ 40%)
2 | > 0.1 | ≥ 40 | – | CC/C(=C(/c1ccc(/C=C/C(=O)O)cc1)c1ccc2cn[nH]c2c1)c1ccccc1 [Compound 5, (E)-3-(4-((E)-1-(1H-Indazol-6-yl)-2-phenylbut-1-en-1-yl)phenyl)acrylic acid] | ++ (++ = a single % value ≧ 40%)
3 | ≤ 0.1 | ≥ 40 | – | CC/C(=C(/c1ccc(/C=C/C(=O)O)cc1)c1cccc2[nH]ncc12)c1ccccc1 [Compound 18, (E)-3-(4-((E)-1-(1H-Indazol-4-yl)-2-phenylbut-1-en-1-yl)phenyl)acrylic acid] | ++ (++ = a single % value ≧ 40%)
4 | ≤ 0.1 | ≥ 40 | ≤ 0.1 | CC/C(=C(/c1ccc(/C=C/C(=O)O)cc1)c1cccc2[nH]ncc12)c1ccccc1C [Compound 21, (E)-3-(4-((E)-1-(1H-Indazol-4-yl)-2-(o-tolyl)but-1-en-1-yl)phenyl)acrylic acid] | ++ (++ = a single % value ≧ 40%)
5 | ≤ 0.1 | ≥ 40 | ≤ 0.1 | CC/C(=C(/c1ccc(/C=C/C(=O)O)cc1)c1cccc2[nH]ncc12)c1ccccc1Cl [Compound 22, (E)-3-(4-((E)-2-(2-Chlorophenyl)-1-(1H-indazol-4-yl)but-1-en-1-yl)phenyl)acrylic acid] | ++ (++ = a single % value ≧ 40%)
6 | ≤ 0.1 | ≥ 40 | ≤ 0.1 | CC/C(=C(/c1ccc(/C=C/C(=O)O)cc1)c1ccc2[nH]ncc2c1)c1cccs1 [Compound 23, (E)-3-(4-((E)-1-(1H-Indazol-5-yl)-2-(thiophen-2-yl)but-1-en-1-yl)phenyl)acrylic acid] | ++ (++ = a single % value ≧ 40%)
7 | ≤ 0.1 | ≥ 40 | ≤ 0.1 | CC/C(=C(/c1ccc(/C=C/C(=O)O)cc1)c1ccc2[nH]ncc2c1)c1ccsc1 [Compound 24, (E)-3-(4-((E)-1-(1H-Indazol-5-yl)-2-(thiophen-3-yl)but-1-en-1-yl)phenyl)acrylic acid] | ++ (++ = a single % value ≧ 40%)
8 | > 0.1 | ≥ 40 | > 0.1 | CC/C(=C(/c1ccc(/C=C/C(=O)O)cc1)c1ccc2[nH]ncc2c1)c1ccccn1 [Compound 25, (E)-3-(4-((E)-1-(1H-Indazol-5-yl)-2-(pyridin-2-yl)but-1-en-1-yl)phenyl)acrylic acid] | ++ (++ = a single % value ≧ 40%)
9 | > 0.1 | ≥ 40 | > 0.1 | CC/C(=C(/c1ccc(/C=C/C(=O)O)cc1)c1ccc2[nH]ncc2c1)c1ccccc1-c1ccccc1 [Compound 28, (E)-3-(4-((E)-2-([1,1′-Biphenyl]-2-yl)-1-(1H-indazol-5-yl)but-1-en-1-yl)phenyl)acrylic acid] | ++ (++ = a single % value ≧ 40%)
10 | ≤ 0.1 | ≥ 40 | ≤ 0.1 | CC/C(=C(/c1ccc(/C=C/C(=O)O)cc1)c1cccc2[nH]ncc12)c1ccc(F)cc1Cl [Compound 30, (E)-3-(4-((E)-2-(2-Chloro-4-fluorophenyl)-1-(1H-indazol-4-yl)but-1-en-1-yl)phenyl)acrylic acid] | ++ (++ = a single % value ≧ 40%)
11 | ≤ 0.1 | ≥ 40 | ≤ 0.1 | CC/C(=C(/c1ccc(/C=C/C(=O)O)cc1)c1cccc2[nH]ncc12)c1ccccc1F [Compound 31, (E)-3-(4-((E)-2-(2-Fluorophenyl)-1-(1H-indazol-4-yl)but-1-en-1-yl)phenyl)acrylic acid] | ++ (++ = a single % value ≧ 40%)
12 | ≤ 0.1 | ≥ 40 | ≤ 0.1 | CC/C(=C(/c1ccc(/C=C/C(=O)O)cc1)c1ccc2[nH]ncc2c1)c1cccc2ccccc12 [Compound 50, (E)-3-(4-((E)-1-(1H-Indazol-5-yl)-2-(naphthalen-1-yl)but-1-en-1-yl)phenyl)acrylic acid] | ++ (++ = a single % value ≧ 40%)
13 | > 0.1 | ≥ 40 | ≤ 0.1 | CC/C(=C(/c1ccc(/C=C/C(=O)O)cc1)c1ccnc2[nH]ncc12)c1ccccc1 [Compound 56, (E)-3-(4-((E)-2-Phenyl-1-(1H-pyrazolo[3,4-b]pyridin-4-yl)but-1-en-1-yl)phenyl)acrylic acid] | ++ (++ = a single % value ≧ 40%)
14 | > 0.1 | ≥ 40 | > 0.1 | CC/C(=C(/c1ccc(/C=C/C(=O)O)cc1)c1ccc2[nH]ncc2c1)c1ccc(N(C)C)cc1 [Compound 62, (E)-3-(4-((E)-2-(4-(Dimethylamino)phenyl)-1-(1H-indazol-5-yl)but-1-en-1-yl)phenyl)acrylic acid] | ++ (++ = a single % value ≧ 40%)
15 | ≤ 0.1 | ≥ 40 | – | CC/C(=C(/c1ccc(/C=C/C(=O)O)cc1)c1ccc2[nH]ccc2c1)c1ccccc1 [Compound 64, (E)-3-(4-((E)-1-(1H-Indol-5-yl)-2-phenylbut-1-en-1-yl)phenyl)acrylic acid] | ++ (++ = a single % value ≧ 40%)
16 | ≤ 0.1 | ≥ 40 | – | CC/C(=C(/c1ccc(/C=C/C(=O)O)cc1)c1ccc2[nH]c(=O)oc2c1)c1ccccc1 [Compound 66, (E)-3-(4-((E)-1-(2-Oxo-2,3-dihydrobenzo[d]oxazol-6-yl)-2-phenylbut-1-en-1-yl)phenyl)acrylic acid] | ++ (++ = a single % value ≧ 40%)
17 | > 0.1 | ≥ 40 | > 0.1 | CC/C(=C(/c1ccc(/C=C/C(=O)O)cc1)c1cnc2[nH]ncc2c1)c1ccccc1 [Compound 67, (E)-3-(4-((E)-2-Phenyl-1-(1H-pyrazolo[3,4-b]pyridin-5-yl)but-1-en-1-yl)phenyl)acrylic acid] | ++ (++ = a single % value ≧ 40%)
18 | > 0.1 | ≥ 40 | > 0.1 | CC/C(=C(/c1ccc(/C=C/C(=O)O)cc1)c1cnc2[nH]ccc2c1)c1ccccc1 [Compound 68, (E)-3-(4-((E)-2-Phenyl-1-(1H-pyrrolo[2,3-b]pyridin-5-yl)but-1-en-1-yl)phenyl)acrylic acid] | ++ (++ = a single % value ≧ 40%)
19 | > 0.1 | – | – | CC/C(=C(/c1ccc(/C=C/C(=O)O)cc1)c1ccc2c(cnn2C(F)F)c1)c1ccc(F)cc1Cl [Compound 401, (E)-3-(4-((E)-2-(2-Chloro-4-fluorophenyl)-1-(1-(difluoromethyl)-1H-indazol-5-yl)but-1-en-1-yl)phenyl)acrylic acid] | –
